Here are results for one molecule from patent publication US5212166A, “Unsaturated 17β-subsituted 3-carboxy steroids” (Farmitalia Carlo Erba S.r.l., priority 1991, dated 1993).

The structures appear in SMILES notation.

The assay deals with T1, human prostatic 5α-reductase (Homo sapiens, UniProt P31213).
T1 construct: from homogenates of human benign prostatic hypertrophyc tissue as the enzyme source; from tissue; host or cells: human benign prostatic hypertrophic tissue, particulate fraction (nuclei, microsomes and mitochondria)
T1 sequence (P31213 1-254): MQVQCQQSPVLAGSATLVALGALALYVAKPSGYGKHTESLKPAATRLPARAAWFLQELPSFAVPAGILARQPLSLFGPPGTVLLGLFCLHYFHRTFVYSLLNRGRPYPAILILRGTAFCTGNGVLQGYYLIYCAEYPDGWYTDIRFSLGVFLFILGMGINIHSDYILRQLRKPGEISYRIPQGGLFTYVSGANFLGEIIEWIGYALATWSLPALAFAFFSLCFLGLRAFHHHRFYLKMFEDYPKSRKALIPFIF
The assay can be described thus: Inhibition of 5α-reductase in vitro, particulate fraction of human benign prostatic hypertrophic tissue homogenate. To be noted: 1 μM [4-14C]testosterone, 5 mM NADPH, pH 5.5, 30 min at 37° C., read-out: concentration producing 50% inhibition on human prostatic 5α-reductase (IC50). It counts as biochemical. Here is the method: For example, the inhibitory effect of the compounds of the invention on 5α-reductase was determined in vitro, according to the test procedure reported herebelow.
Inhibition of 5α-reductase was evaluated using the particulate fraction (containing nuclei, microsomes and mitochondria) from homogenates of human benign prostatic hypertrophyc tissue as the enzyme source.
The particulate fraction was prepared centrifuging prostate homogenate at 140,000 × g.
The resulting pellet, washed several times, was resuspended in buffer and stored at -80° C. in aliquots containing 10 mg protein/ml.
The assay for 5α-reductase was done in a final volume of 0.5 ml, containing 1 mM dithiothreitol, 40 mM TRIS-HCl buffer pH 5.5, 5 mM NADPH, 1 μM [4-^14 C]testosterone, 0.3 mg protein of the prostate particulate fraction and various concentrations of the inhibitors. […] Radioactivity on the plate was scanned and analyzed from quantitative plots printed by a TLC-analizer (Berthold). The fractional 5α-reduction of testosterone was calculated by relating the ^14 C-radioactivity in the 5α-reduced metabolites 5α-dihydrotestosterone, 3α- and 3β-androstanediols) regions to the total radioactivity in the testosterone and 5α-reduced metabolites regions. […]

On to `CC(C)NC(=O)N(C(=O)[C@H]1CC[C@H]2[C@@H]3CC=C4C=C(C(=O)O)CC[C@]4(C)[C@H]3CC[C@]12C)C(C)C` [17β-[N-isopropyl-N-(N-isopropylcarbamoyl)carbamoyl]androsta-3,5-diene-3-carboxylic acid], for which the IC50 turned out to be 3 nM.
